The target in one series is T1, CYP1A2 (Homo sapiens, UniProt P05177).
T1 sequence (P05177 whole entry): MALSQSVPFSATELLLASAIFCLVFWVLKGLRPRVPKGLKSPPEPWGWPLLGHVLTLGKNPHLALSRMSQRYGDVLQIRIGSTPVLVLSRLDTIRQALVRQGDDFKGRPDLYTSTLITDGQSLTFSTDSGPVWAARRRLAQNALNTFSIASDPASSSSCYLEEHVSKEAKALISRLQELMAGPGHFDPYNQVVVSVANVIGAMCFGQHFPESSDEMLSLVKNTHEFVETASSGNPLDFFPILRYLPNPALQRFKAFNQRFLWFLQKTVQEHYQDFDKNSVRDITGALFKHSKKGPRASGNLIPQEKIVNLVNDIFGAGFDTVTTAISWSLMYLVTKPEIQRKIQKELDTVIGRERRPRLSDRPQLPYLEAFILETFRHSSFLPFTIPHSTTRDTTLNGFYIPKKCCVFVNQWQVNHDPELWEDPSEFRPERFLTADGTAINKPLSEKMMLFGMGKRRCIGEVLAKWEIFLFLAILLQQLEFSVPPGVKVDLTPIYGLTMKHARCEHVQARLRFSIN
In words: Inhibition of human recombinant CYP1A2 using 7-ethoxyresorufin as substrate assessed as percent enzyme activity at 1 uM after 30 mins in presence of NADPH by EROD assay relative to control. Format: ADME. More on the design: scale not given: the % may be the effect or the level left. The following applies: recombinant CYP1A2, probe 7-ethoxyresorufin, read-out: Activity.

The species named for series [1] is Homo sapiens. In words: Selectivity ratio of IC50 for human recombinant CYP1A1 to IC50 for human recombinant CYP1B1.
The species entered for series [2] is Homo sapiens. In words: Selectivity ratio of IC50 for human recombinant CYP1A2 to IC50 for human recombinant CYP1B1.
Series [3] addresses T2, Cytochrome P450 1B1 (Homo sapiens, UniProt Q16678).
T2 sequence (Q16678 whole entry): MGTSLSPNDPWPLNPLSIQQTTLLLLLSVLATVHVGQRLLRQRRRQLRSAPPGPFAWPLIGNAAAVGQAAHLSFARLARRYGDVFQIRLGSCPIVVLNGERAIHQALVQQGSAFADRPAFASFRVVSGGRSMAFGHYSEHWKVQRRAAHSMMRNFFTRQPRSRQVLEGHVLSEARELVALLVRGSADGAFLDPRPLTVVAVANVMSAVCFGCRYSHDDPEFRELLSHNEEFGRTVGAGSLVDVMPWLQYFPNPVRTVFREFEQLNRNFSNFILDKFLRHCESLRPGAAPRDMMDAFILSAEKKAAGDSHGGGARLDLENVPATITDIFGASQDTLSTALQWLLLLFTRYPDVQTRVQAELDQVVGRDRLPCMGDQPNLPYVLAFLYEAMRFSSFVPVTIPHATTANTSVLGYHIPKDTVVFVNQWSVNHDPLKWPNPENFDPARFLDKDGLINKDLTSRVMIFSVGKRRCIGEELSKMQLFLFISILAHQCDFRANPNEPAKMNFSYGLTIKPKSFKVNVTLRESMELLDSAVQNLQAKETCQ
In words: Inhibition of human recombinant CYP1B1 using 7-ethoxyresorufin as substrate assessed as percent enzyme activity at 1 uM after 30 mins in presence of NADPH by EROD assay relative to control. Also noted: scale not given: the % may be the effect or the level left. The following applies: read-out: Activity.

The next series concerns the target T3, Cytochrome P450 1A2 (Homo sapiens, UniProt P05177).
T3 sequence (P05177 whole entry): T1 sequence (P05177 whole entry)
In words: Inhibition of human recombinant CYP1A2 using 7-ethoxyresorufin as substrate after 30 mins in presence of NADPH by EROD assay. The series is classed as ADME.

The target of series [4] is T2, Cytochrome P450 1B1. In words: Inhibition of human recombinant CYP1B1 using 7-ethoxyresorufin as substrate after 30 mins in presence of NADPH by EROD assay.
Series [5] has as its target T2, Cytochrome P450 1B1. In words: Binding affinity to human C-terminal 4His-tagged CYP1B1 expressed in Escherichia coli DH5alpha assessed as spectral dissociation constant by spectrophotometric analysis. To be noted: read-out: Ks.
For a further series, the target named is T4, CYP1A1 (Homo sapiens, UniProt P04798).
T4 sequence (P04798 whole entry): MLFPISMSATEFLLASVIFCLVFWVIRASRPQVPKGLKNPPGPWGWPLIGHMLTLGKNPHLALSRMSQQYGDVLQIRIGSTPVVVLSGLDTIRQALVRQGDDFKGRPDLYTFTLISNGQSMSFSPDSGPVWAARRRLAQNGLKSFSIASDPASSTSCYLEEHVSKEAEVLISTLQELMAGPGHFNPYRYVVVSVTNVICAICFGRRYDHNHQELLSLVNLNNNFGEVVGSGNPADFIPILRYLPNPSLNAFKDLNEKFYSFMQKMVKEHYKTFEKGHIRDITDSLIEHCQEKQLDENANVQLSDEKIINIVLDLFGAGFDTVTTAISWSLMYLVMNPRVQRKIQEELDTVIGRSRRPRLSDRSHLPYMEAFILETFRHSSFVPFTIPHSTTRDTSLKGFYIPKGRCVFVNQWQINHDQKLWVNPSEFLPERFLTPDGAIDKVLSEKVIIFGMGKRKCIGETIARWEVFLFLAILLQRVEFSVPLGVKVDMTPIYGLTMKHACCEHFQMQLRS
In words: Inhibition of human recombinant CYP1A1 using 7-ethoxyresorufin as substrate assessed as percent enzyme activity at 1 uM after 15 mins in presence of NADPH by EROD assay relative to control. Also noted: scale not given: the % may be the effect or the level left. The series is classed as ADME. To be noted: recombinant CYP1A1, probe 7-ethoxyresorufin, read-out: Activity.

In the next series the target is T5, Cytochrome P450 1A1 (Homo sapiens, UniProt P04798).
T5 sequence (P04798 whole entry): T4 sequence (P04798 whole entry)
In words: Inhibition of human recombinant CYP1A1 using 7-ethoxyresorufin as substrate after 15 mins in presence of NADPH by EROD assay. The series is classed as ADME.

Series [6] can be described thus: Aqueous solubility of compound in 9:1 PBS/ethanol buffer by shake flask method. The series is classed as physicochemical.
Series [7] in a line: Solubility of compound in pH 7.4 PBS by shake flask met. The following applies: buffer. Format: physicochemical.

Values after ≈ are worked out from the molar mass of the structure shown.

Regarding `C=C=C[C@H]1CC[C@H](c2cc(=O)c3ccc4ccccc4c3o2)CC1`, the activity at 0.5 h, 1 µM on CYP1A2 is -4.5%; at Cytochrome P450 1B1 [3], -0.4%. Besides, the results for the Ratio IC50 in the series filed under Homo sapiens [1] and in the series filed under Homo sapiens [2] were 1.02 and 2.7, respectively. Further, the results for the IC50 at Cytochrome P450 1A2, on Cytochrome P450 1B1 [4] and at Cytochrome P450 1A1 were 36.4 nM, 13.4 nM and 13.6 nM, respectively. Further, on Cytochrome P450 1B1 [5], the Kd was 2400 nM. At CYP1A1, the activity at 0.25 h, 1 µM came out at 3%.
As to `O=c1cc(C2CCCCC2)oc2c1ccc1ccccc12`, the figures for the activity at 0.5 h, 1 µM on CYP1A2 and on Cytochrome P450 1B1 [3] were 51.8% and 25.4%, respectively. The molecule also displayed a thermodynamic solubility in series [6] of 9.65 µM (≈ 2.69 µg/mL). The IC50 on Cytochrome P450 1B1 [4] came out at 540 nM. Moreover, at Cytochrome P450 1B1 [5], the Kd was 5900 nM. Moreover, the activity at 0.25 h, 1 µM at CYP1A1 is 51.5%.
Take `O=c1cc(-c2ccccc2)oc2c1ccc1ccccc12` [ALPHA-NAPHTHOFLAVONE]: the figures for the activity at 0.5 h, 1 µM at CYP1A2 and on Cytochrome P450 1B1 [3] were -10.1% and -11.3%, respectively. Also, the solubility entry in [7] is reported as “Insoluble”. In series [6], this molecule gave a solubility (thermodynamic) of 2.63 µM (≈ 0.716 µg/mL). Further, the activity at 0.25 h, 1 µM on CYP1A1 worked out at 0.4%. Moreover, the IC50 on Cytochrome P450 1A1 stood at 53.8 nM.
For `[N-]=[N+]=N[C@H]1CC[C@@H](c2cc(=O)c3ccc4ccccc4c3o2)CC1`, the figures for the activity at 0.5 h, 1 µM on CYP1A2 and at Cytochrome P450 1B1 [3] were 29.6% and -15.3%, respectively. The Ratio IC50 came out at 120 in the series filed under Homo sapiens [1] and 153 in the series listed under Homo sapiens [2]. Also, the solubility (thermodynamic) in [6] worked out at 2.67 µM (≈ 0.853 µg/mL). Further, the values for the IC50 on Cytochrome P450 1A2, on Cytochrome P450 1B1 [4] and on Cytochrome P450 1A1 were 667 nM, 4.4 nM and 525 nM, respectively. Further, on Cytochrome P450 1B1 [5], the Kd turned out to be 2600 nM. Further, the activity at 0.25 h, 1 µM at CYP1A1 turned out to be 39.6%.
Take `[N-]=[N+]=Nc1ccc(-c2cc(=O)c3ccc4ccccc4c3o2)cc1`: the activity at 0.5 h, 1 µM on CYP1A2 is -13.6%; on Cytochrome P450 1B1 [3] it was -0.5%. In addition, the Ratio IC50 is 3.6 in the series listed under Homo sapiens [1] and 35.6 in the series filed under Homo sapiens [2]. Besides, the solubility (thermodynamic) in series [6] is below 1 µM. In addition, the IC50 worked out at 93.8 nM on Cytochrome P450 1A2, 2.6 nM at Cytochrome P450 1B1 [4] and 9.5 nM on Cytochrome P450 1A1. Further, the Kd on Cytochrome P450 1B1 [5] was 900 nM. Besides, the activity at 0.25 h, 1 µM at CYP1A1 stood at 2.3%.
Regarding `[N-]=[N+]=NCC1CCC(c2cc(=O)c3ccc4ccccc4c3o2)CC1` (mixture of isomers), the activity at 0.5 h, 1 µM at CYP1A2 stood at 22.3%; on Cytochrome P450 1B1 [3], 2.2%. Besides, the values for the Ratio IC50 in the series listed under Homo sapiens [1] and in the series filed under Homo sapiens [2] were 9.2 and 18.5, respectively. Moreover, the IC50 is 433 nM on Cytochrome P450 1A2, 23.5 nM at Cytochrome P450 1B1 [4] and 216 nM on Cytochrome P450 1A1. Besides, the Kd at Cytochrome P450 1B1 [5] worked out at 3900 nM. The activity at 0.25 h, 1 µM on CYP1A1 was found to be 6.3%.
As for `[N-]=[N+]=Nc1cccc(-c2cc(=O)c3ccc4ccccc4c3o2)c1`, the activity at 0.5 h, 1 µM at CYP1A2 stood at 6.9%; on Cytochrome P450 1B1 [3] it was 0.7%. Also, the Ratio IC50 in the series listed under Homo sapiens [1] worked out at 15.5; in the series filed under Homo sapiens [2] it was 42.8. Also, the half-inhibitory concentration (IC50) is 74.7 nM at Cytochrome P450 1A2, 1.8 nM on Cytochrome P450 1B1 [4] and 27.1 nM on Cytochrome P450 1A1. The Kd at Cytochrome P450 1B1 [5] was 800 nM. The activity at 0.25 h, 1 µM at CYP1A1 was determined as 1.4%.
In the case of `O=c1cc([C@H]2CC[C@H](S)CC2)oc2c1ccc1ccccc12`, the activity at 0.5 h, 1 µM at CYP1A2 is 0.6%; on Cytochrome P450 1B1 [3] it was 1.8%. For the same molecule, the Ratio IC50 in the series listed under Homo sapiens [1] was 3.6; in the series listed under Homo sapiens [2], 17.1. Moreover, the IC50 was determined as 689 nM on Cytochrome P450 1A2, 40.3 nM on Cytochrome P450 1B1 [4] and 146 nM at Cytochrome P450 1A1. Moreover, the Kd at Cytochrome P450 1B1 [5] is 8900 nM. Besides, the activity at 0.25 h, 1 µM on CYP1A1 worked out at 1.3%.

Broadly, the IC50 is the concentration needed to halve the response being measured. In general, solubility (thermodynamic) refers to the concentration in solution at equilibrium with solid.

Source of the values: ChEMBL document CHEMBL4308906, “Design and synthesis of selective CYP1B1 inhibitor via dearomatization of α-naphthoflavone” (Bioorg Med Chem, 2019).
